Data from patent US20260284018A1, “DUAL INHIBITORS OF DYRK1A AND 5-HT2 FOR TREATING A BRAIN DISORDER” (THE REGENTS OF THE UNIVERSITY OF CALIFORNIA, priority 2023, published 2026).

Legend:
JNK2 [1] = molecular target: T1, JNK2 (Homo sapiens, UniProt P45984); conditions: 10 μM; cited from earlier work
T1 construct: purchased Eurofins DiscoverX

VEGFR2 [2] = molecular target: T2, VEGFR2 (Homo sapiens, UniProt P35968); conditions: 10 μM; cited from earlier work
T2 construct: purchased Eurofins DiscoverX KINOMEscan scanEDGE

IGF1R = molecular target: T3, IGF1R (Homo sapiens, UniProt P08069); conditions: 10 μM; cited from earlier work
T3 construct: purchased Eurofins DiscoverX

ERBB4 [3] = molecular target: T4, ERBB4 (Homo sapiens, UniProt Q15303); conditions: 10 μM; cited from earlier work
T4 construct: purchased Eurofins DiscoverX

CDK3 [4] = molecular target: T5, CDK3 (Homo sapiens, UniProt Q00526); conditions: 10 μM; cited from earlier work
T5 construct: purchased Eurofins DiscoverX

PAK4 = molecular target: T6, PAK4 (Homo sapiens, UniProt O96013); conditions: 10 μM; cited from earlier work
T6 construct: purchased Eurofins DiscoverX (KINOMEscan scanEDGE service)

MET [5] = molecular target: T7, MET (Homo sapiens, UniProt P08581); conditions: 10 μM; cited from earlier work
T7 construct: purchased Eurofins DiscoverX (KINOMEscan scanEDGE service)

PIK3CG = molecular target: T8, PIK3CG (Homo sapiens, UniProt P48736); conditions: 10 μM; cited from earlier work
T8 construct: purchased Eurofins DiscoverX (KINOMEscan scanEDGE service)

BTK = molecular target: T9, BTK (Homo sapiens, UniProt Q06187); conditions: 10 μM; cited from earlier work
T9 construct: purchased Eurofins DiscoverX

ABL1-nonphosphorylated = molecular target: T10, ABL1-nonphosphorylated (Homo sapiens, UniProt P00519); conditions: 10 μM; cited from earlier work
T10 construct: purchased Eurofins DiscoverX

DYRK1B = molecular target: T11, DYRK1B (Homo sapiens, UniProt Q9Y463); conditions: 10 μM; cited from earlier work
T11 construct: purchased Eurofins DiscoverX

CDK9 [6] = molecular target: T12, CDK9 (Homo sapiens, UniProt P50750); conditions: 10 μM; cited from earlier work
T12 construct: purchased Eurofins DiscoverX

PIK3C2B = molecular target: T13, PIK3C2B (Homo sapiens, UniProt O00750); conditions: 10 μM; cited from earlier work
T13 construct: purchased Eurofins DiscoverX (KINOMEscan scanEDGE service)

PLK1 = molecular target: T14, PLK1 (Homo sapiens, UniProt P53350); conditions: 10 μM; cited from earlier work
T14 construct: purchased Eurofins DiscoverX KINOMEscan scanEDGE

CDK2 = molecular target: T15, CDK2 (Homo sapiens, UniProt P24941); assay: KINOMEscan scanEDGE; format: binding; conditions: read-out: Percent Control
T15 construct: purchased Eurofins DiscoverX
Protocol: (§1) Kinome Scan. Compound HTW_A_8 fumarate was screened against 97 kinases at a single concentration of 10 μM at Eurofins DiscoverX using their KINOMEscan™ scanEDGE assay. The results are reported as the % activity relative to DMSO control, where lower values indicate higher affinity. See Table 1 for the full kinome profile.

BRAF(V600E) = molecular target: T16, BRAF(V600E) (Homo sapiens, UniProt P15056, V600E); assay: KINOMEscan scanEDGE; format: binding; conditions: read-out: Percent Control
T16 construct: purchased Eurofins DiscoverX
Protocol: as §1

ERK1 = molecular target: T17, ERK1 (Homo sapiens, UniProt P27361); assay: KINOMEscan scanEDGE; format: binding; conditions: read-out: Percent Control
T17 construct: purchased Eurofins DiscoverX
Protocol: as §1

[7] = molecular target: T18, TYK2(JH1domain-catalytic) (Homo sapiens, UniProt P29597); assay: KINOMEscan scanEDGE; format: binding; conditions: read-out: Percent Control
T18 construct: TYK2(JH1domain-catalytic); purchased Eurofins DiscoverX KINOMEscan scanEDGE
Protocol: as §1

CSNK1D = molecular target: T19, CSNK1D (Homo sapiens, UniProt P48730); assay: KINOMEscan scanEDGE; format: binding; conditions: read-out: Percent Control
T19 construct: purchased Eurofins DiscoverX
Protocol: as §1

AURKA = molecular target: T20, AURKA (Homo sapiens, UniProt O14965); assay: KINOMEscan scanEDGE; format: binding; conditions: read-out: Percent Control
T20 construct: purchased Eurofins DiscoverX
Protocol: as §1

CHEK1 = molecular target: T21, CHEK1 (Homo sapiens, UniProt O14757); assay: KINOMEscan scanEDGE; format: binding; conditions: read-out: Percent Control
T21 construct: purchased Eurofins DiscoverX
Protocol: as §1

JNK2 [8] = molecular target: T1, JNK2; assay: KINOMEscan scanEDGE; format: binding; conditions: read-out: Percent Control
Protocol: as §1

[9] = molecular target: T22, JAK2(JH1domain-catalytic) (Homo sapiens, UniProt O60674); assay: KINOMEscan scanEDGE; format: binding; conditions: read-out: Percent Control
T22 construct: JAK2(JH1domain-catalytic); purchased Eurofins DiscoverX
Protocol: as §1

ERBB4 [10] = molecular target: T4, ERBB4; assay: KINOMEscan scanEDGE; format: binding; conditions: read-out: Percent Control
Protocol: as §1

BMPR2 = molecular target: T23, BMPR2 (Homo sapiens, UniProt Q13873); assay: KINOMEscan scanEDGE; format: binding; conditions: read-out: Percent Control
T23 construct: purchased Eurofins DiscoverX
Protocol: as §1

FGFR2 = molecular target: T24, FGFR2 (Homo sapiens, UniProt P21802); assay: KINOMEscan scanEDGE; format: binding; conditions: read-out: Percent Control
T24 construct: purchased Eurofins DiscoverX
Protocol: as §1

KIT(V559D, T670I) = molecular target: T25, KIT(V559D, T670I) (Homo sapiens, UniProt P10721, T670I/V559D); assay: KINOMEscan scanEDGE; format: binding; conditions: read-out: Percent Control
T25 construct: purchased Eurofins DiscoverX
Protocol: as §1

CDK9 [11] = molecular target: T12, CDK9; assay: KINOMEscan scanEDGE; format: binding; conditions: read-out: Percent Control
Protocol: as §1

ALK = molecular target: T26, ALK (Homo sapiens, UniProt Q9UM73); assay: KINOMEscan scanEDGE; format: binding; conditions: read-out: Percent Control
T26 construct: purchased Eurofins DiscoverX
Protocol: as §1

EPHA2 = molecular target: T27, EPHA2 (Homo sapiens, UniProt P29317); assay: KINOMEscan scanEDGE; format: binding; conditions: read-out: Percent Control
T27 construct: purchased Eurofins DiscoverX
Protocol: as §1

PDPK1 = molecular target: T28, PDPK1 (Homo sapiens, UniProt O15530); assay: KINOMEscan scanEDGE; format: binding; conditions: read-out: Percent Control
T28 construct: purchased Eurofins DiscoverX (KINOMEscan scanEDGE service)
Protocol: as §1

PLK4 = molecular target: T29, PLK4 (Homo sapiens, UniProt O00444); assay: KINOMEscan scanEDGE; format: binding; conditions: read-out: Percent Control
T29 construct: purchased Eurofins DiscoverX KINOMEscan scanEDGE
Protocol: as §1

CDK3 [12] = molecular target: T5, CDK3; assay: KINOMEscan scanEDGE; format: binding; conditions: read-out: Percent Control
Protocol: as §1

YANK3 = molecular target: T30, YANK3 (Homo sapiens, UniProt Q86UX6); assay: KINOMEscan scanEDGE; format: binding; conditions: read-out: Percent Control
T30 construct: purchased Eurofins DiscoverX KINOMEscan scanEDGE
Protocol: as §1

SRPK3 = molecular target: T31, SRPK3 (Homo sapiens, UniProt Q9UPE1); assay: KINOMEscan scanEDGE; format: binding; conditions: read-out: Percent Control
T31 construct: purchased Eurofins DiscoverX KINOMEscan scanEDGE
Protocol: as §1

MET [13] = molecular target: T7, MET; assay: KINOMEscan scanEDGE; format: binding; conditions: read-out: Percent Control
Protocol: as §1

VEGFR2 [14] = molecular target: T2, VEGFR2; assay: KINOMEscan scanEDGE; format: binding; conditions: read-out: Percent Control
Protocol: as §1

MLK1 = molecular target: T32, MLK1 (Homo sapiens, UniProt P80192); assay: KINOMEscan scanEDGE; format: binding; conditions: read-out: Percent Control
T32 construct: purchased Eurofins DiscoverX (KINOMEscan scanEDGE service)
Protocol: as §1

T7 sequence (P08581 25-1390): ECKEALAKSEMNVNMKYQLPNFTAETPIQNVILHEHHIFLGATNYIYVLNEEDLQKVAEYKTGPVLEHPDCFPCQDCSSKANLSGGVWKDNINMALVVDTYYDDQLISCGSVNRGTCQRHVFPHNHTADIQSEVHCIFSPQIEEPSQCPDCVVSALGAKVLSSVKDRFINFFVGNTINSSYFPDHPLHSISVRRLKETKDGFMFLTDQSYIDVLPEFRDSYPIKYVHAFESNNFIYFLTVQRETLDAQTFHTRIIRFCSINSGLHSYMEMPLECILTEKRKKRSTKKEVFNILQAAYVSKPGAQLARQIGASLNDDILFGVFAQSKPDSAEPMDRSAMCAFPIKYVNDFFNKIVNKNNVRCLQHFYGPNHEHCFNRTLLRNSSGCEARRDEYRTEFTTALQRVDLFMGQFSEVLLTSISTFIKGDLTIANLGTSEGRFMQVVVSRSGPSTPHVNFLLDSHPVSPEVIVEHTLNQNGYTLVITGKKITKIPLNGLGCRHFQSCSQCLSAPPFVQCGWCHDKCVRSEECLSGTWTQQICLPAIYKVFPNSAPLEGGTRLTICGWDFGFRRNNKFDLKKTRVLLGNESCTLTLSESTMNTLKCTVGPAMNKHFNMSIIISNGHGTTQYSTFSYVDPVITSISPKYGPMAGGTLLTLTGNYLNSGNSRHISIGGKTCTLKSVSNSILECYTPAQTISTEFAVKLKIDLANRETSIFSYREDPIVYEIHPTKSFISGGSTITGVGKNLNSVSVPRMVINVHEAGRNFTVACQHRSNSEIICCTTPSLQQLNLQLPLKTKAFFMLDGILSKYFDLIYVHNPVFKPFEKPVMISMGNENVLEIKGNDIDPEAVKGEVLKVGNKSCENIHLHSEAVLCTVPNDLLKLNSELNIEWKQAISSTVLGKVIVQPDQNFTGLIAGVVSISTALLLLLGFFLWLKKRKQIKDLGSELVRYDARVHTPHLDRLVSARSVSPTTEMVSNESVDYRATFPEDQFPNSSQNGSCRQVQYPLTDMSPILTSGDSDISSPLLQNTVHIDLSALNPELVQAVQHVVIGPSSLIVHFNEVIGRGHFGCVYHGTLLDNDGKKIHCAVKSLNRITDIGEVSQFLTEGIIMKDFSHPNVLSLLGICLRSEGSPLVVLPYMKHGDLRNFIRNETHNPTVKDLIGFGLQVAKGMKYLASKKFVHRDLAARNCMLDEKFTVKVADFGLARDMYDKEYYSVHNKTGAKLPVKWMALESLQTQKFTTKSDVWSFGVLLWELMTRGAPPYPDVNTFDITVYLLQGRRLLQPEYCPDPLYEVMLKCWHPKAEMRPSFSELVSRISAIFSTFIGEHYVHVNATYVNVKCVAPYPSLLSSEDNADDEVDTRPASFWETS
T5 sequence (Q00526 whole entry): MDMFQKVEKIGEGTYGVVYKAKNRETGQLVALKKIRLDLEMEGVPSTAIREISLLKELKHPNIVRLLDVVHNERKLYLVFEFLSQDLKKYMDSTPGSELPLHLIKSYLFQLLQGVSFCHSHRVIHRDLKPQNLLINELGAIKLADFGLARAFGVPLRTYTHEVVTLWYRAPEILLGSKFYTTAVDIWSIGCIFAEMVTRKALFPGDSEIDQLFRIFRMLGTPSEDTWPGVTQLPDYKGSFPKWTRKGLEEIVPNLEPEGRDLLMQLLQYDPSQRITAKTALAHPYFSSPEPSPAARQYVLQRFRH
T1 sequence (P45984 whole entry): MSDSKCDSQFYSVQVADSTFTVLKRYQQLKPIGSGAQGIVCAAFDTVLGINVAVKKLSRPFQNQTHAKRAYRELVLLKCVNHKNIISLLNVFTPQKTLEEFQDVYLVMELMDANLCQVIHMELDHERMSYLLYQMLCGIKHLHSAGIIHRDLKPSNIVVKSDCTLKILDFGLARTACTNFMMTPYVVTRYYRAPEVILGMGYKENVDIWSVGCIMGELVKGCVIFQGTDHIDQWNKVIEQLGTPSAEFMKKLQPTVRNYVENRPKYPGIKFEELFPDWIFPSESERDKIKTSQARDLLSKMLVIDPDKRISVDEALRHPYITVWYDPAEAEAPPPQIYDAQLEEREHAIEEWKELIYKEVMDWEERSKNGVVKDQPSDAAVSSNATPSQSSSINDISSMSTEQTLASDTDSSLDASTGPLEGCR
T2 sequence (P35968 20-1356): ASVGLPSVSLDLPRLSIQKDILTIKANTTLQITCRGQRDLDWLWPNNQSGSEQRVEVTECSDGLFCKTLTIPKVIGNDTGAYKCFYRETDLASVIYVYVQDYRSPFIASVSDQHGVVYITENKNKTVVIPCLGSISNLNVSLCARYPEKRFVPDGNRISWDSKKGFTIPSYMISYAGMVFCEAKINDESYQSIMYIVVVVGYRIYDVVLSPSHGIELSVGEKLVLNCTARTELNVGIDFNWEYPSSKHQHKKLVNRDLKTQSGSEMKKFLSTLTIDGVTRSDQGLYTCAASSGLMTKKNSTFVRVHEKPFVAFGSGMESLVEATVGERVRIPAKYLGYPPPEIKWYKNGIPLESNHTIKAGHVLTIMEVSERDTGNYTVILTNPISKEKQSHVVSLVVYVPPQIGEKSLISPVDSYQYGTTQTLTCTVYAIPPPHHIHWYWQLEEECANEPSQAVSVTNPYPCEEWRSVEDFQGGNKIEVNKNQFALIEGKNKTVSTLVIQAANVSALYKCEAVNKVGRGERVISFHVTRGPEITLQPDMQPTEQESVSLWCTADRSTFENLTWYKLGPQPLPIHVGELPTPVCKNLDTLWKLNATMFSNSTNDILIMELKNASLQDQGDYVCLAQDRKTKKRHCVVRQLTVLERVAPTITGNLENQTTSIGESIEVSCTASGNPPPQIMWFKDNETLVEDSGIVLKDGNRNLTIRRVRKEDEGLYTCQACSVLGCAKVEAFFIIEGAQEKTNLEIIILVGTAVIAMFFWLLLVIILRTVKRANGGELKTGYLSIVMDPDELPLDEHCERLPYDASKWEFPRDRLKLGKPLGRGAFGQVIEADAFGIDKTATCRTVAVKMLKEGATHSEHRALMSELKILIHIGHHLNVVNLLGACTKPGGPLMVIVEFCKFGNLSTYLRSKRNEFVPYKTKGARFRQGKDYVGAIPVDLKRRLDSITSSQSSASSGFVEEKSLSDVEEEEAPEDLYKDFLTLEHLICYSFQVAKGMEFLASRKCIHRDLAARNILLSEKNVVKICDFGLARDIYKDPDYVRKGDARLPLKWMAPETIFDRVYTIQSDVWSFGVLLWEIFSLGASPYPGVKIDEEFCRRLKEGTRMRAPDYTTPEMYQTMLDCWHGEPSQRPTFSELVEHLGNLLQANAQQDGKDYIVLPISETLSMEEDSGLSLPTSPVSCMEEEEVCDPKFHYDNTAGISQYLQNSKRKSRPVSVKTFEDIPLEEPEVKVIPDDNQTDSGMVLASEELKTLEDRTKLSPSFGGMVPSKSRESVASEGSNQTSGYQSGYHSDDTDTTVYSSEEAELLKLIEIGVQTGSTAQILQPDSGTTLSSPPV
T12 sequence (P50750 whole entry): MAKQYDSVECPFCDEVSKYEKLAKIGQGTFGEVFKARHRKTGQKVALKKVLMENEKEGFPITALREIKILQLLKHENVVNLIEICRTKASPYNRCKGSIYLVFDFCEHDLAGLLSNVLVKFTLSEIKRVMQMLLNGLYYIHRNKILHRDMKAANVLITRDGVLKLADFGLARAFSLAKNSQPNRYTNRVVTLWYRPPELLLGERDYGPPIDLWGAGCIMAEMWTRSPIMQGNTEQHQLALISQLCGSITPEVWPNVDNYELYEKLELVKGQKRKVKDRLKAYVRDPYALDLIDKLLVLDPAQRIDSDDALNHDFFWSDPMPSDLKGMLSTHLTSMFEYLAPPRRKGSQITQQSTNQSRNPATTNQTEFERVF
T4 sequence (Q15303 26-1308): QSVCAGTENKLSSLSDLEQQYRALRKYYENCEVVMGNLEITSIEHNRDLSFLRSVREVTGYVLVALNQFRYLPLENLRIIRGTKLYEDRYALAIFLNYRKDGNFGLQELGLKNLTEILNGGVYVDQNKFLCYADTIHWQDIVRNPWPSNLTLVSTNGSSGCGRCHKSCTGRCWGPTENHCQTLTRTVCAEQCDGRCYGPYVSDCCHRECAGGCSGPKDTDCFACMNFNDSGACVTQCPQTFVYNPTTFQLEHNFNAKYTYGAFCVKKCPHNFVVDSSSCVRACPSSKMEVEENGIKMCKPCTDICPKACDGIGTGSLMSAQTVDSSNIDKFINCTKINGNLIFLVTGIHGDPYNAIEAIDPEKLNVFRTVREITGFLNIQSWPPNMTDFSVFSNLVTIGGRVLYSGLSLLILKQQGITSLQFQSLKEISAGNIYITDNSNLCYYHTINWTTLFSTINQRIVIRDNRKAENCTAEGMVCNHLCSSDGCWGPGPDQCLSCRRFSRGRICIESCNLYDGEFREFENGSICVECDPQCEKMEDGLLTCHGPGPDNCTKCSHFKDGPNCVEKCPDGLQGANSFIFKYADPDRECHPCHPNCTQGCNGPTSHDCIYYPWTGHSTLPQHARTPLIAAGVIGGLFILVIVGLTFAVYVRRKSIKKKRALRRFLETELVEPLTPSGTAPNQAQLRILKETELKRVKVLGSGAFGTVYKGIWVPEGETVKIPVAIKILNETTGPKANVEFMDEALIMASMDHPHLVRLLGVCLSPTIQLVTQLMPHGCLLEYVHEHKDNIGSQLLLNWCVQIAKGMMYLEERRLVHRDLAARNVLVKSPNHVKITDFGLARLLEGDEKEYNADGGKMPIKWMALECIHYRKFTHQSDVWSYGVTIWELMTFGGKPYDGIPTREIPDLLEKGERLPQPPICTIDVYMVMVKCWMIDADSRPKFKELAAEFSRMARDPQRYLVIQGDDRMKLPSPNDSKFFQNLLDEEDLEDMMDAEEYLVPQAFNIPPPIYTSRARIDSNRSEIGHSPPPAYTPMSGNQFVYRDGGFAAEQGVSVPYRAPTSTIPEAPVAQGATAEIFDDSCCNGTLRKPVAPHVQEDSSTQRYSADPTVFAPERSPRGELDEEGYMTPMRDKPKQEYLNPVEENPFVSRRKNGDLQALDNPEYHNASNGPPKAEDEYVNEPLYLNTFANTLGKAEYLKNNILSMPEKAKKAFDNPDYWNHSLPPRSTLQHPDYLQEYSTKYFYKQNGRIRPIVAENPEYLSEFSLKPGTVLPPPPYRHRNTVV

For `COc1ccc2c(c1)[nH]c1c(C)nccc12` [Harmine, harmine], the “Percent Control” value (JNK2 [1]) is given as 58%, the “Percent Control” value (VEGFR2 [2]) is given as 78% and the “Percent Control” value (IGF1R) is given as 100%. For the same compound, the “Percent Control” value (ERBB4 [3]) was 83%, the “Percent Control” value (CDK3 [4]) was 100% and the “Percent Control” value (PAK4) was 76%. The “Percent Control” value (MET [5]) was 100%, the “Percent Control” value (PIK3CG) was 49% and the “Percent Control” value (BTK) was 100%. For the same compound, the “Percent Control” value (ABL1-nonphosphorylated) was 90%, the “Percent Control” value (DYRK1B) was 6.1% and the “Percent Control” value (CDK9 [6]) was 67%. For the same compound, the “Percent Control” value (PIK3C2B) was 97% and the “Percent Control” value (PLK1) was 93%.

For `COc1ccc2c3ccnc(C)c3n(CCN(C)C)c2c1.O=C(O)/C=C/C(=O)O` [HTW_A_8 fumarate, 2-(7-methoxy-1-methyl-9H-pyrido[3,4-b]indol-9-yl)-N,N-dimethylethan-1-amine Fumarate Salt (2:3)], the remaining binding at 10 µM (CDK2) was 100%, the remaining binding at 10 µM (BRAF(V600E)) was 100% and the remaining binding at 10 µM (ERK1) was 85%. For the same compound, the remaining binding at 10 µM [7] was 97%, the remaining binding at 10 µM (CSNK1D) was 88% and the remaining binding at 10 µM (AURKA) was 100%. The remaining binding at 10 µM (CHEK1) was 93%, the remaining binding at 10 µM (JNK2 [8]) was 81% and the remaining binding at 10 µM [9] was 100%. The remaining binding at 10 µM (ERBB4 [10]) was 100%, the remaining binding at 10 µM (BMPR2) was 100% and the remaining binding at 10 µM (FGFR2) was 95%. The remaining binding at 10 µM (KIT(V559D, T670I)) was 89%, the remaining binding at 10 µM (CDK9 [11]) was 100% and the remaining binding at 10 µM (ALK) was 79%. The remaining binding at 10 µM (EPHA2) was 88%, the remaining binding at 10 µM (PDPK1) was 76% and the remaining binding at 10 µM (PLK4) was 81%. It also gave a remaining binding at 10 µM (CDK3 [12]) of 91%, a remaining binding at 10 µM (YANK3) of 94% and a remaining binding at 10 µM (SRPK3) of 81%. For the same compound, the remaining binding at 10 µM (MET [13]) was 100%, the remaining binding at 10 µM (VEGFR2 [14]) was 100% and the remaining binding at 10 µM (MLK1) was 91%.
